{"source": "patent US8703114B2", "about": "“Conjugate of a polymer, an anti-angiogenesis agent and a targeting moiety, and uses thereof in the treatment of bone related angiogenesis conditions” (priority 2008, dated 2014)", "key": {"[1]": {"test_system": "Saos-2 human osteosarcoma cells", "assay": "Saos-2 cell proliferation assay", "type": "cell-based", "method": "(§1) Human osteosarcoma Saos-2 or MG-63-Ras cells were plated at 2500 cells/well in DMEM supplemented with 5 FBS and incubated for 24 hours (37° C.; 5% CO2). The medium was then replaced with DMEM supplemented with 10% FBS. Cells were exposed to ALN, TNP-470, and HPMA copolymer-ALN-TNP-470 conjugate or with equivalent concentrations of combinations of free ALN and TNP-470 at serial dilutions. […] Control cells were grown in the presence or absence of growth factors. HUVEC or Saos-2 viable cells were counted by a Z1 Coulter® Particle Counter (Beckman Coulter™) or by XTT reagent respectively after 72 hours of incubation."}, "HUVEC [2]": {"test_system": "HUVEC", "assay": "HUVEC cell proliferation assay", "conditions": "for IC30 of HUVEC proliferation / IC70 of HUVEC proliferation: single treatment", "procedure": "HUVEC were plated at 10,000 cells/well onto 24-well culture plates in EBM-2 supplemented with 5% FBS and incubated for 24 hours (37° C.; 5% CO2). Medium was replaced with 2.5% endothelial cell basal medium-2 (EBM-2) supplemented with 1% Endothelial cell growth supplement (ECGS). Human osteosarcoma Saos-2 or MG-63-Ras cells were plated at 2500 cells/well in DMEM supplemented with 5 FBS and incubated for 24 hours (37° C.; 5% CO2). The medium was then replaced with DMEM supplemented with 10% FBS. Cells were exposed to ALN, TNP-470, and HPMA copolymer-ALN-TNP-470 conjugate or with equivalent concentrations of combinations of free ALN and TNP-470 at serial dilutions. HUVEC were also incubated with or without 1 μM of cathepsin-K inhibitor III. Control cells were grown in the presence or absence of growth factors. HUVEC or Saos-2 viable cells were counted by a Z1 Coulter® Particle Counter (Beckman Coulter™) or by XTT reagent respectively after 72 hours of incubation.\nIC50 represents the concentration of a drug that is required for 50% inhibition in vitro. The IC30, 50, 70 values of treatment with ALN, TNP-470 and their respective combinations from HUVEC proliferation assay were collected. IC30, 50, 70 values of TNP-470 and ALN were marked on X, Y axis respectively and a line which represents additive effect was drawn between each inhibitory concentration (IC). The combination index (CI) of each treatment was calculated according to the classic isobologram equation CI=[(D)1/(Dx)1]+[(D)2/(Dx)2] as previously described [Chou T. C. Pharmocol Rev 2006; 58:621-681]. Area on the right side of each IC additive line represents antagonist effect while the left side represents synergic effect."}, "HUVEC [3]": {"test_system": "HUVEC", "assay": "HUVEC migration assay towards VEGF", "type": "cell-based, human", "procedure": "Cell migration assays were performed using modified 8 μm Boyden chambers coated with 10 μg/ml fibronectin. […] Following incubation, cells were allowed to migrate to the underside of the chamber for 4 hours in the presence or absence of Vascular endothelial growth factor (VEGF) (20 ng/ml) in the lower chamber. Cells were then fixed with ice-cold […] and stained using Hema 3 Stain System. The stained migrated cells were imaged using Nikon TE2000E inverted microscope integrated with Nikon DS5 cooled CCD camera by 10× objective, brightfield illumination. Migrated cells from the captured images per membrane were counted using NIH image software. Migration was normalized to percent migration, with 100% representing VEGF dependent migration of cells which were not incubated with free or HPMA-conjugated ALN and TNP-470."}, "[4]": {"test_system": "MG-63-Ras human osteosarcoma tumors", "assay": "Immunohistochemistry of tumors (H & E, CD34 microvessel density)", "type": "in vivo, mice", "procedure": "Immunohistochemistry of tumor nodules was performed using 5 μm thick formalin-fixed, paraffin-embedded tissue sections. Paraffin sections were de-paraffinized, rehydrated, and stained by hematoxylin and eosin (H & E). For CD34 staining (an endothelial cell marker), slides were deparaffinized and pre-treated with 10 mM citrate, pH 6.0 for 50 min in a steam pressure cooker (Decloaking Chamber, BioCare Medical, Walnut Creek, Calif.). All further steps were performed at room temperature in a hydrated chamber. Slides were covered with Peroxidase Block (Merck, Germany) for 5 minutes to quench endogenous peroxidase activity, followed by incubation with 10% of rabbit serum in 50 mM Tris-HCl, pH 7.4, for 30 min to block non-specific binding sites. Primary rat anti-murine CD34 antibody (MEC 14.7 1:50 dilution; Abcam, Cambridge, Mass.) was applied in 1% rabbit serum in Tris-HCl, pH 7.4 at room temperature for 1 hour. Slides were washed in 50 mM TrisHCl, pH 7.4 and rabbit anti-rat antibody (1:750 dilution; Vector Laboratories, CA, USA) was applied for 30 minutes, followed by anti-rabbit horseradish peroxidase-conjugated antibody (ABC detection kit, Vector Laboratories, CA, USA). Following further washing, immunoperoxidase staining was developed using a ImmPACT™ DAB diluent kit (Vector Laboratories, CA, USA) per the manufacturer instructions and counterstained with methyl green. Microvessel density (MVD) was calculated as previously described [Weidner et al. 1991, N Engl J Med 324:1-8]."}, "[5]": {"test_system": "VEGF-induced extravasation of Evans blue dye", "assay": "Miles vascular permeability assay", "type": "in vivo, Balb/c mice", "conditions": "30 mg/kg TNP-470 equivalents s.c., assay three days later", "procedure": "Balb/c male mice were injected subcutaneously (s.c.) with TNP-470, HPMA copolymer-ALN-TNP-470 conjugate (30 mg/kg TNP-470 equivalents) or saline (n=5 mice/group). Three days later, a modified Miles assay was performed as previously described [Claffey et al. 1996, Cancer Res 56: 172-181; Miles & Miles 1952, J Physiol 118:228-257]. Briefly, Evans blue dye (100 μl of a 1% solution in 0.9% NaCl) was injected into the retro-orbital plexus of the mice. Ten minutes later, 50 μl of human VEGF165 (1 ng/μl) or PBS were injected intradermally into the pre-shaved back skin. Twenty minutes later, the animals were killed, and an area of skin that included the entire injection site was removed. Evans blue dye was extracted from the skin by incubation with formamide for 5 days at room temperature, and the absorbance of the extracted dye was measured at 620 nm. Data is expressed as mean±standard error of the mean (s.e.m.)."}, "[6]": {"assay": "Hydroxyapatite binding assay", "conditions": "PBS pH 7.4", "procedure": "In order to assess the ability of HPMA copolymer-ALN-TNP-470 conjugate to bind to bone mineral, its binding potency to hydroxyapatite (HA) was evaluated. HPMA copolymer-ALN-TNP-470 conjugate was dissolved in phosphate buffered saline (PBS), pH 7.4 (1 mg/ml). The conjugate solution (500 μl) was incubated with hydroxyapatite powder (15 mg), in 500 μl PBS, pH 7.4. HPMA copolymer-Gly-Phe-Leu-Gly was used as control. Incubated samples were centrifuged at 6000 RPM for 3 minutes and a sample from the upper layer (100 μl) was collected at selected time points. FPLC analysis using HighTrap desalting column (Amersham®) was used for detection of unbound conjugate in the samples (FPLC conditions: AKTA™ Purifier®, mobile phase 100% DDW, 2 ml/minute, 215 nm). Hydroxyapatite binding kinetic analysis of the conjugate was performed using the Unicorn® AKTA™ software. Areas under the curve (AUC) were calculated from chromatographs at each time point. AUC of each hydroxyapatite incubated conjugate chromatogram was normalized to percent AUC of conjugate sample in the absence of hydroxyapatite used as control."}, "[7]": {"test_system": "mCherry-labeled MG-63-Ras human osteosarcoma", "assay": "Antitumor activity on MG-63-Ras human osteosarcoma in mice", "type": "in vivo, SCID mice", "conditions": "day 19, 30 mg/kg q.o.d. 3 times s.c.", "procedure": "SCID male were inoculated s.c. with 5×10^5 mCherry-labeled MG-63-Ras human osteosarcoma. Mice bearing 70 mm^3 tumors were injected s.c. with combination of free ALN and TNP-470 (1:1, 30 mg/kg), FITC-labeled HPMA copolymer-ALN-TNP-470 conjugate (30 mg/kg q.o.d.×3 times TNP-470-equivalent dose) or saline (n=5 mice/group). Therapy was initiated at a relatively early state (70 mm^3) in order to imitate a metastatic scenario as well as an early primary osteosarcoma. Tumor progression was monitored by caliper measurement (width×length^2×0.52) and by CRI™ Maestro non-invasive intravital imaging system. At termination, tumors were dissected, weighed and analyzed. Data is expressed as mean±standard error of the mean (s.e.m.).\nCRI Maestro™ non-invasive fluorescence imaging system was used to follow tumor progression of mice bearing mCherry-labeled MG-63-Ras human osteosarcoma tumors and for biodistribution studies of FITC-labeled HPMA copolymer-ALN-TNP-470 conjugate. Mice were maintained on a non-fluorescent diet (Harlan) for the whole period of the experiment. Mice were anesthetized using ketamine (100 mg/kg) and xylazine (12 mg/kg), treated with a depilatory cream (Veet®) and placed inside the imaging system. Alternatively, selected organs from mice were dissected and placed inside the imaging system. […]"}, "HUVEC [8]": {"test_system": "HUVEC", "assay": "Capillary-like tube formation assay", "type": "cell-based, human", "procedure": "The surface of 24-well plates was coated with Matrigel® basement membrane (50 μl/well; 10 mg/ml) on ice and was allowed to polymerize at 37° C. for 30 minutes. […] After 8 hours of incubation (37° C.; 5% CO2), wells were imaged using Nikon TE2000E inverted microscope integrated with Nikon DS5 cooled CCD camera by 4× objective, brightfield illumination. […]"}, "[9]": {"test_system": "MG-63-Ras human osteosarcoma cells", "assay": "MG-63-Ras cell proliferation assay", "type": "cell-based", "method": "as §1"}, "[10]": {"conditions": "Homo sapiens, HUVEC, read-out: IC50 of HUVEC proliferation"}, "[11]": {"conditions": "equivalent concentration 0.1 nM"}}, "note": "Read-outs that look alike come from different tables or passages of the source.", "data": [{"compound": "NCCCC(O)(P(=O)(O)O)P(=O)(O)O", "note": "[ALN, (4-amino-1-hydroxybutylidene)bisphosphonic acid]", "values": [{"measurement": "Dose dependence of inhibition of Saos-2 proliferation", "setting": "[1]", "value": "inhibited at a dose dependent manner"}, {"measurement": "Dose dependence of inhibition of ECGS-induced HUVEC proliferation", "setting": "HUVEC [2]", "value": "inhibited at a dose dependent manner"}, {"measurement": "IC50", "setting": "HUVEC [2]; [10]", "value": 50000, "unit": "nM"}, {"measurement": "IC30 of HUVEC proliferation", "setting": "HUVEC [2]", "value": 10, "unit": "µM"}, {"measurement": "IC70 of HUVEC proliferation", "setting": "HUVEC [2]", "value": 90, "unit": "µM"}]}, {"compound": "CO[C@@H]1[C@H](OC(=O)NC(=O)CCl)CC[C@]2(CO2)[C@H]1[C@@]1(C)O[C@@H]1CC=C(C)C", "note": "[TNP-470]", "values": [{"measurement": "Inhibition of chemotactic migration response to VEGF", "setting": "HUVEC [3]; equivalent concentrations of 0.1, 1 and 10 nM", "value": "dramatically inhibited"}, {"measurement": "Inhibition of HUVEC proliferation, free vs conjugated TNP-470", "setting": "HUVEC [2]", "value": "inhibited similarly"}, {"measurement": "IC50", "setting": "HUVEC [2]; [10]", "value": 0.1, "unit": "nM"}, {"measurement": "IC30 of HUVEC proliferation", "setting": "HUVEC [2]", "value": "2.5e-07", "unit": "µM"}, {"measurement": "IC70 of HUVEC proliferation", "setting": "HUVEC [2]", "value": 1, "unit": "µM"}]}, {"compound": "HPMA-Gly-Gly-Pro-Nle-ALN-TNP-470 [HPMA copolymer-ALN-TNP-470 conjugate]", "values": [{"measurement": "Inhibition of chemotactic migration response to VEGF", "setting": "HUVEC [3]; [11]", "value": 18, "unit": "%"}, {"measurement": "Inhibition of chemotactic migration response to VEGF", "setting": "HUVEC [3]; equivalent concentration 1 nM", "value": 35, "unit": "%"}, {"measurement": "Inhibition of chemotactic migration response to VEGF", "setting": "HUVEC [3]; equivalent concentration 10 nM", "value": 61, "unit": "%"}, {"measurement": "Microvessel density (MVD)", "setting": "[4]; CD34 staining", "value": "32±9", "unit": "microvessels/mm^2"}, {"measurement": "Reduction in microvessel density (MVD) vs control", "setting": "[4]; CD34 staining", "value": 74, "unit": "%"}, {"measurement": "Tumor histology (H & E)", "setting": "[4]; mouse, in vivo", "value": "almost regressed"}, {"measurement": "IC50", "setting": "[1]", "value": 30, "unit": "µM"}, {"measurement": "Inhibition of VEGF-induced extravasation of Evans blue dye vs vehicle", "setting": "[5]", "value": 92, "unit": "%"}, {"measurement": "Cytotoxic effect on HUVEC at doses higher than", "setting": "HUVEC [2]; ALN and TNP-470 equivalent concentrations", "value": "> 10", "unit": "nM"}, {"measurement": "Concentrations inhibiting HUVEC proliferation in the presence of cathepsin K inhibitor III", "setting": "HUVEC [2]; ALN-equivalent concentrations, 72 hours", "value": "higher than 4 μM"}, {"measurement": "Shift of concentration inhibiting HUVEC proliferation in presence vs absence of cathepsin K inhibitor III", "setting": "HUVEC [2]; higher concentration in presence of inhibitor", "value": 4, "unit": "logs"}, {"measurement": "IC50", "setting": "HUVEC [2]; read-out: IC50 of ECGS-induced HUVEC proliferation, ALN and TNP-470 equivalent concentrations, 72 hours", "value": 1, "unit": "nM"}, {"measurement": "IC50", "setting": "HUVEC [2]; read-out: IC50 of HUVEC proliferation in the presence of cathepsin K inhibitor III, 1 μM cathepsin K inhibitor III", "value": 4200, "unit": "nM"}, {"measurement": "Conjugate bound to hydroxyapatite", "setting": "[6]; 2 minutes of incubation", "value": 50, "unit": "%"}, {"measurement": "Conjugate bound to hydroxyapatite", "setting": "[6]; plateau after 175 minutes of incubation", "value": 92, "unit": "%"}, {"measurement": "Tumor growth inhibition", "setting": "[7]", "value": 96, "unit": "%"}, {"measurement": "Inhibition of capillary-like tube length vs untreated control", "setting": "HUVEC [8]; equivalent concentration 0.01 nM", "value": 29, "unit": "%"}, {"measurement": "Inhibition of capillary-like tube length vs untreated control", "setting": "HUVEC [8]; [11]", "value": 54, "unit": "%"}, {"measurement": "Inhibition of capillary-like tube length vs untreated control", "setting": "HUVEC [8]; equivalent concentration 1 nM", "value": 64, "unit": "%"}, {"measurement": "IC50", "setting": "[9]", "value": 10, "unit": "µM"}]}]}
